For data set [1], the system named is Zea mays. The experiment in a line: Toxicity in Zea mays (maize) assessed as plant height relative to untreated control. Format: organism-based. The conditions noted are these: in vivo.
Data set [2] concerns Zea mays. Briefly: Toxicity in Zea mays (maize) assessed as reduction in cob size relative to untreated control. The following applies: in vivo. In kind it is organism-based. Also noted: scale not given: the % may be the effect or the level left.

As for `CC(C)N1C(=O)c2ccccc2NS1(=O)=O` [BENTAZON], the Activity with Zea mays [1] was 100%.

As for `O=C(O)c1nc(Cl)ccc1Cl` [CLOPYRALID], the Activity in the data set with Zea mays [2] was found to be 67%.

On to `COc1cc(OC)nc(NC(=O)NS(=O)(=O)c2ncccc2C(=O)N(C)C)n1` [NICOSULFURON], for which the Activity in the data set with Zea mays [1] was found to be 100%.

Turning to `COc1nc(C)nc(NC(=O)NS(=O)(=O)c2ccccc2CCC(F)(F)F)n1` [PROSULFURON], in the data set with Zea mays [1], the Activity is on record as 100%.

For the molecule `COC(=O)c1sccc1S(=O)(=O)NC(=O)Nc1nc(C)nc(OC)n1` [THIFENSULFURON-METHYL], the Activity with Zea mays [2] amounted to 9%.

Source of the values: ChEMBL document CHEMBL3046257, “Response of sweet maize (Zea mays L.) hybrids to halosulfuron” (Crop Prot, 2008).
